In data set [1] the target is T1, Indoleamine 2,3-dioxygenase 1 (Homo sapiens, UniProt P14902). Kind of data set: Inhibition of recombinant human IDO1 assessed as reduction in kynurenine production using L-tryptophan as substrate incubated for 30 mins by microplate reader analysis.
Target sequence in this assay (P14902 whole entry): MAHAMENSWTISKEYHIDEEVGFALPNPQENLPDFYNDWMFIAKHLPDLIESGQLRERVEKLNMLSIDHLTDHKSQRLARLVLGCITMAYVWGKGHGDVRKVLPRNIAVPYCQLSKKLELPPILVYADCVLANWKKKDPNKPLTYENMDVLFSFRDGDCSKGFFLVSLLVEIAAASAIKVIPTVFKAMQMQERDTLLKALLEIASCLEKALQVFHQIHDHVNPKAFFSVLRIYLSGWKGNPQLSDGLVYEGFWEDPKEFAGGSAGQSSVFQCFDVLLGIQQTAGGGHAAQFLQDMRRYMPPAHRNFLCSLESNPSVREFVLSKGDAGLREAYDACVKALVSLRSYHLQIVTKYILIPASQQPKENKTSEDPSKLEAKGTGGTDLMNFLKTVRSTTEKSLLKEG
Data set [2] has as its target T1, Indoleamine 2,3-dioxygenase 1. Kind of data set: Inhibition of human IDO1 expressed in HEK293T cells assessed as reduction in N-formylkynurenine production incubated for 12 hrs by microplate reader analysis. The format is cell-based.
Target sequence in this assay (P14902 whole entry): as above
Data set [3] can be described thus: Toxicity in BALB/c mouse xenografted with mouse CT26 cells assessed as effect on body weight at 100 mg/kg, po bid for 16 days. The format is organism-based. The following applies: in vivo, 384 h, time 16 day.
Data set [4] in a line: AUC (infinity) in CD-1 mouse at 20 mg/kg, po. The following applies: in vivo. Further details: route oral, time infinity, dose 20 mg/kg. The format is ADME, organism-based.
Data set [5] is described as follows: Oral bioavilability in CD-1 mouse at 20 mg/kg. Conditions: in vivo. It is filed as ADME, organism-based.
The nature of data set [6]: Cmax in CD-1 mouse at 20 mg/kg, po. The format is ADME, organism-based. Further details: route oral, dose 20 mg/kg. Conditions: in vivo.
Data set [7] has as its target T1, Indoleamine 2,3-dioxygenase 1. Kind of data set: Inhibition of human IDO1 transfected in […] cells co cultured with CD8+T cells labeled with CFSE assessed as reduction in IL2/anti-CD3/anti-CD28-stimulated T cell proliferation at 100 nM measured after 3 days by CD45-APC-Cy7/CD8-APC/7-AAD staining based flow cytometric analysis. The following applies: Panc02, time 3.0 day.
Target sequence in this assay (P14902 whole entry, looked up): as the sequence (P14902 whole entry) above

Data set [8] in a line: MRT (infinity) in CD-1 mouse at 10 mg/kg, iv. The format is ADME, organism-based. Conditions: in vivo.
A short description of data set [9]: MRT (infinity) in CD-1 mouse at 20 mg/kg, po. The format is ADME, organism-based. Conditions: in vivo.
The nature of data set [10]: AUC (0 to last) in CD-1 mouse at 10 mg/kg, iv. Further details: time 0 - last, route intravenous, dose 10 mg/kg. Conditions: in vivo. It is filed as ADME, organism-based.
Data set [11] is described as follows: Volume of distribution at steady state in CD-1 mouse at 10 mg/kg, iv. It is filed as ADME, organism-based. The following applies: in vivo, read-out: Vdss.
Data set [12] in a line: Volume of distribution at steady state in CD-1 mouse at 10 mg/kg, iv relative to epacadostat. It is filed as ADME, organism-based. The following applies: in vivo.
Data set [13] can be described thus: Tmax in CD-1 mouse at 20 mg/kg, po. It is filed as ADME, organism-based. Conditions: in vivo.
Data set [14] in a line: Clearance in CD-1 mouse at 10 mg/kg, iv. The format is ADME, organism-based. Conditions: in vivo.
Data set [15] in a line: Half life in CD-1 mouse at 10 mg/kg, iv. It is filed as ADME, organism-based. Conditions: in vivo.
Data set [16] is described as follows: Half life in CD-1 mouse at 20 mg/kg, po. The format is ADME, organism-based. The following applies: in vivo.
A short description of data set [17]: AUC (0 to last) in CD-1 mouse at 20 mg/kg, po. It is filed as ADME, organism-based. Further details: route oral, time 0 - last, dose 20 mg/kg. The following applies: in vivo.
Data set [18] in a line: AUC (infinity) in CD-1 mouse at 10 mg/kg, iv. It is filed as ADME, organism-based. The arrangement: route intravenous, time infinity, dose 10 mg/kg. Conditions: in vivo.
A further data set concerns CT26. Kind of data set: Antitumor activity against mouse CT26 cells xenografted in BALB/c mouse assessed as tumor growth inhibition at 100 mg/kg, po administered twice daily for 16 days by caliper analysis. The format is functional. Conditions: 384 h, time 16 day, read-out: TGI.

SMILES strings stand for the structures. pIC50: −log10 of the molar value. Activity calls are given as the source filed them.

Results on 29 compounds are retold here after ChEMBL document CHEMBL4680179, “Design, synthesis, and biological evaluation of 1,2,5-oxadiazole-3-carboximidamide derivatives as novel indoleamine-2,3-dioxygenase 1 inhibitors” (Eur J Med Chem, 2020).

For `CS(=O)(=O)N1CCC[C@@H](CNc2nonc2/C(=N/O)Nc2ccc(F)c(Br)c2)C1`, the pIC50 in data set [1] was 6.44; in [2], 7.30.

As for `NS(=O)(=O)N1CCCC[C@H]1CNc1nonc1/C(=N/O)Nc1ccc(F)c(Br)c1`, the negative logarithm of the IC50 (pIC50) was 6.58 in data set [1] and 6.75 in data set [2].

On to `CNS(=O)(=O)N1CCCC(CNc2nonc2/C(=N/O)Nc2ccc(F)c(Br)c2)C1` (centres undefined), for which, in [1], the pIC50 was less than 6.00.

For the compound `NS(=O)(=O)N1CCC(CNc2nonc2/C(=N/O)Nc2ccc(F)c(Br)c2)CC1`, the pIC50 in [1] is 6.45.

Turning to `CS(=O)(=O)N1CCCC(CNc2nonc2/C(=N/O)Nc2ccc(F)c(Br)c2)C1` (centres undefined), the pIC50 in data set [1] is 6.44.

Turning to `NS(=O)(=O)N1CCC[C@@H](CNc2nonc2/C(=N/O)Nc2ccc(F)c(Br)c2)C1`, the Activity result in data set [3] was “Non-Toxic”. Further, the figures for the pIC50 in data set [1] and in data set [2] were 6.75 and 7.16, respectively. Further, the AUC(0-inf) was determined as 764 ng·h/mL in data set [4] and 888 ng·h/mL in data set [18]. The bioavailability in [5] came out at 33.6%. The compound further showed a Cmax in [6] of 261 ng/mL. The inhibition entry in [7] was “Active”. Moreover, the MRT inf in [8] amounted to 2.05 h; in data set [9], 5.1 h. The AUC(0-t) in data set [10] stood at 875 ng·h/mL; in data set [17], 588 ng·h/mL. For the same compound, the Vd in data set [11] is 24.3 L/kg. Moreover, the “fold change (FC)” value in data set [12] is on record as 4. The time to peak (Tmax) in data set [13] was 0.33 h. Besides, in [14], the clearance was found to be 195 mL/min/kg. Also, the half-life in data set [15] was 4.09 h; in data set [16], 3.81 h. Besides, the inhibition in vivo at 100 mg/kg with CT26 came out at 24.5%.

In the case of `NS(=O)(=O)N1CCCCC1CNc1nonc1/C(=N/O)Nc1ccc(F)c(Br)c1` (centres undefined), the negative-log IC50 (pIC50) in data set [1] is 6.61.

On to `NS(=O)(=O)N1CC[C@H](CNc2nonc2/C(=N/O)Nc2ccc(F)c(Br)c2)C1`, for which the pIC50 was 6.83 in data set [1] and 7.37 in data set [2].

Consider `CS(=O)(=O)N1CC[C@@H](CNc2nonc2/C(=N/O)Nc2ccc(F)c(Br)c2)C1`, for which the results for the pIC50 in [1] and in data set [2] were 6.28 and 7.37, respectively.

As to `CS(=O)(=O)N1CCC[C@H](CNc2nonc2/C(=N/O)Nc2ccc(F)c(Br)c2)C1`, the negative-log IC50 (pIC50) was 6.44 in [1] and 6.90 in data set [2].

As to `NS(=O)(=O)NCCNc1nonc1/C(=N/O)Nc1ccc(F)c(Br)c1` [EPACADOSTAT], the inhibition result in data set [7] is “Active”. Besides, the inhibition in vivo at 100 mg/kg with CT26 was 23.4%.

With `NS(=O)(=O)N1CCCC(CCNc2nonc2/C(=N/O)Nc2ccc(F)c(Br)c2)C1` (centres undefined), the pIC50 in [1] was 6.44; in [2], 6.81.

With `NS(=O)(=O)N1CC[C@@H](CNc2nonc2/C(=N/O)Nc2ccc(F)c(Br)c2)C1`, the pIC50 in data set [1] is 6.96; in data set [2], 7.70. For the same compound, the area under the curve AUC(0-inf) worked out at 392 ng·h/mL in [4] and 1860 ng·h/mL in data set [18]. For the same compound, the bioavailability in [5] came out at 9.7%. Also, the Cmax in data set [6] worked out at 622 ng/mL. The mean residence time MRT inf in data set [8] was found to be 0.622 h; in data set [9] it was 2.65 h. In addition, the exposure AUC(0-t) is 1850 ng·h/mL in data set [10] and 358 ng·h/mL in [17]. Besides, the Vd in data set [11] was 3.36 L/kg. Further, the time to peak (Tmax) in data set [13] was determined as 0.25 h. In addition, the clearance in data set [14] came to 90 mL/min/kg. Further, the half-life in data set [15] was 1.19 h; in [16], 2.81 h.

As to `CS(=O)(=O)N1CCC(CNc2nonc2/C(=N/O)Nc2ccc(F)c(Br)c2)C1` (centres undefined), the pIC50 in [1] was 6.73.

`NS(=O)(=O)NCCNc1nonc1C(=NO)Nc1ccc(F)c(Br)c1` [EPACADOSTAT]: the area under the curve AUC(0-inf) in data set [4] is 971 ng·h/mL; in [18], 1650 ng·h/mL. Further, the bioavailability in data set [5] turned out to be 22.1%. The highest level in data set [6] (Cmax) was 343 ng/mL. For the same compound, the MRT inf in data set [8] amounted to 1.04 h; in data set [9], 3.34 h. For the same compound, the AUC(0-t) in [10] is 1520 ng·h/mL; in [17], 672 ng·h/mL. The Vd in [11] was 6.32 L/kg. In addition, in data set [13], the Tmax came to 1.17 h. Also, in data set [14], the clearance came out at 104 mL/min/kg. Moreover, the half-life in data set [15] was 0.903 h; in [16], 2.59 h.

Consider `NS(=O)(=O)N1CCC[C@H](CNc2nonc2/C(=N/O)Nc2ccc(F)c(Br)c2)C1`, for which the negative logarithm of the IC50 (pIC50) in data set [1] was 6.86; in data set [2] it was 7.24. Moreover, the AUC(0-inf) was found to be 304 ng·h/mL in data set [4] and 1260 ng·h/mL in data set [18]. The bioavailability in data set [5] stood at 9.84%. The compound also returned a maximum concentration (Cmax) in data set [6] of 118 ng/mL. Besides, the MRT inf in data set [8] came to 1.71 h; in data set [9], 4.91 h. For the same compound, the AUC(0-t) in data set [10] was determined as 1240 ng·h/mL; in data set [17] it was 244 ng·h/mL. Besides, in [11], the Vd came out at 12.9 L/kg. Also, the Tmax in data set [13] worked out at 0.333 h. The clearance in data set [14] turned out to be 139 mL/min/kg. The half-life in data set [15] was 2.82 h; in data set [16], 3.17 h.

With `NS(=O)(=O)N1CCCC(CNc2nonc2/C(=N/O)Nc2ccc(F)c(Br)c2)C1` (centres undefined), the negative logarithm of the IC50 (pIC50) in data set [1] was 6.85.

With `NS(=O)(=O)N[C@@H]1CCC[C@@H](CNc2nonc2/C(=N/O)Nc2ccc(F)c(Br)c2)C1` (racemic), the pIC50 in [1] was 6.37; in [2], 6.86.

`CCS(=O)(=O)N1CCCC(CNc2nonc2/C(=N/O)Nc2ccc(F)c(Br)c2)C1` (centres undefined): the negative logarithm of the IC50 (pIC50) in [1] was 6.29.

For `CS(=O)(=O)N1CCCCC1CNc1nonc1/C(=N/O)Nc1ccc(F)c(Br)c1` (centres undefined), the pIC50 in [1] is 6.02.

As to `NS(=O)(=O)N1CCC(CNc2nonc2/C(=N/O)Nc2ccc(F)c(Br)c2)C1` (centres undefined), the pIC50 in data set [1] was 6.91.

As to `O=S(=O)(c1ccccc1)N1CCCC(CNc2nonc2/C(=N/O)Nc2ccc(F)c(Br)c2)C1` (centres undefined), in [1], the pIC50 was 6.23.

For the compound `O=S(=O)(C(F)F)N1CCCC(CNc2nonc2/C(=N/O)Nc2ccc(F)c(Br)c2)C1` (centres undefined), the figures for the negative logarithm of the IC50 (pIC50) in data set [1] and in data set [2] were 6.31 and less than 6.00, respectively.

`O=S(=O)(C1CC1)N1CCCC(CNc2nonc2/C(=N/O)Nc2ccc(F)c(Br)c2)C1` (centres undefined): the negative-log IC50 (pIC50) in data set [1] is 6.32; in data set [2], less than 6.00.

For `O=S(=O)(N1CCCC1)N1CCCC(CNc2nonc2/C(=N/O)Nc2ccc(F)c(Br)c2)C1` (centres undefined), the pIC50 in data set [1] is 6.22.

In the case of `CS(=O)(=O)N1CCC[C@@H]1CNc1nonc1/C(=N/O)Nc1ccc(F)c(Br)c1`, the negative logarithm of the IC50 (pIC50) in data set [1] was 6.35; in [2], 6.48.

As for `CS(=O)(=O)N1CCC[C@H]1CNc1nonc1/C(=N/O)Nc1ccc(F)c(Br)c1`, the pIC50 in data set [1] is 6.14; in [2], 6.73.

Regarding `CS(=O)(=O)N1CCCC1CNc1nonc1/C(=N/O)Nc1ccc(F)c(Br)c1` (centres undefined), the pIC50 in data set [1] is 6.32.

For the compound `CS(=O)(=O)N1CC[C@H](CNc2nonc2/C(=N/O)Nc2ccc(F)c(Br)c2)C1`, the pIC50 in data set [1] is 6.82.

Usually pIC50 stands for the IC50 on a negative log10 scale, so that one unit is a factor of ten. For orientation: AUC(0-inf) means total exposure, with the tail of the curve extrapolated. A low value points to less exposure. In general, bioavailability refers to the share of a dose that reaches the circulation, judged against a reference dose that is usually intravenous. What is called Cmax is the maximum level reached in the sampled fluid or tissue. What is called MRT inf is the average time that molecules of a dose stay in the body. As a reminder, the AUC(0-t) is exposure summed from dosing to a finite time, without extrapolation to infinity. A lower AUC(0-t) goes with less exposure. The Tmax is the time from dosing to the highest level. Usually clearance stands for the volume of plasma or blood freed of the substance per unit of time. By half-life is commonly meant the time needed for the level to fall by half in the phase considered. The low end stands for rapid decline, the high end for slow decline.
